Read-outs that look alike come from different tables or passages of the source.
Key:
[1] = tested on: low risk or intermediate risk prostate cancer; experiment: ENACT study: biopsy outcomes (negative biopsies, percentage of cancer-positive cores) at 1 and 2 years; type: in vivo, human
Source text: This was followed by a one year follow up period, and a further continued follow-up period of at least one-year, until the last patient completed the 24-month visit.
(§1) Secondary endpoints were (1) Incidence of negative biopsies for cancer at 1 year and 2 years; (2) percentage of cancer-positive cores at 1 year and 2 years; (3) time to PSA progression; and (4) incidence of a secondary rise in serum PSA at 1 year and 2 years. “PSA progression” is defined as a ≥25% increase in serum PSA from baseline, a ≥25% increase above nadir, or an absolute increase of ≥2 ng/mL.
(§2) Secondary endpoint of incidence of negative biopsy for cancer was summarized using frequencies and percentages at one and two years by treatment groups. […] Analysis of time to PSA progression was performed using the same method used to analyze the primary endpoint. P-values were adjusted using the Bonferroni-Holm method to control type I error at 0.05 for selected secondary endpoints.

[2] = tested on: low risk or intermediate risk prostate cancer; conditions: for Hazard Ratio (95% CI), time to prostate cancer progression: enzalutamide/AS, Cox regression, HR<1 favors enzalutamide
[3] = ENACT study: adverse events (safety set); type: in vivo, human; conditions: During 1-year continued follow-up period, n = 112
[4] = tested on: serum PSA; experiment: ENACT study: time to PSA progression and secondary rise in serum PSA; type: in vivo, human; conditions: for Hazard Ratio (95% CI), time to PSA progression: Cox regression
Method: as §1, §2

[5] = ENACT study: adverse events (safety set); type: in vivo, human
Source text: The full analysis set (FAS) was the patients who were enrolled in the study and randomized to one or the other of the study arms. The safety set (SAF) was redefined in the Statistical Analysis Plan (SAP) to include only subjects who took the study drug. The FAS was 227 patients (113 in the active surveillance arm, 114 in the enzalutamide arm). The SAF had 112 subjects in the enzalutamide arm.
As expected, the incidence of Drug-Related Adverse Events (AEs) were reported in 92.0% (103/112) of the enzalutamide patients during the treatment period plus 30 days. Of the patients on active surveillance, 54.9% (62/113) experienced an adverse event from randomization until date completed 12 months on study plus 30 days. The most common Drug-Related AE seen in the enzalutamide group was fatigue (52.7%). Adverse events which occurred in ≥3.5% of enzalutamide patients were fatigue (55.4%), gynecomastia (36.6%), nipple pain (30.4%), breast tenderness (25.9%), and erectile dysfunction (17.9%). The only AE that occurred in ≥3.5% of the patients on active surveillance was hypertension (7.1%). […] Observed AE data were consistent with the known safety profile of enzalutamide.

CNC(=O)c1ccc(N2C(=S)N(c3ccc(C#N)c(C(F)(F)F)c3)C(=O)C2(C)C)cc1F [enzalutamide, Enzalutamide]
Percentage of cancer-positive cores at 1 year, LS mean change from baseline ± SE ([1]; 1 year, n = 90): −12.97 ± 1.99%
Biopsy result at 1 year: Positive, % ([1]; 1 year, n = 114): (46.5) %
Biopsy result at 1 year: Unknown, % ([1]; 1 year, n = 114): (18.4) %
Incidence of negative biopsy at 1 year: Negative, % ([1]; 1 year, n = 114): 35.1%
Percentage of cancer-positive cores at 2 years, LS mean change from baseline ± SE ([1]; 2 years, n = 53): −6.68 ± 2.37%
Biopsy result at 2 years: Positive, % ([1]; 2 years, n = 100): (47.0) %
Biopsy result at 2 years: Unknown, % ([1]; 2 years, n = 100): (34.0) %
Incidence of negative biopsy at 2 years: Negative, % ([1]; 2 years, n = 100): 19.0%
reduction in the mean percentage of cancer-positive cores within the enzalutamide arm ([1]; between baseline and year two): 6.7%
Percentage of cancer-positive cores at 1 year, Difference in LS means ± SE ([1]; enzalutamide vs AS, 1 year): −10.07 ± 2.40%
Percentage of cancer-positive cores at 2 years, Difference in LS means ± SE ([1]; enzalutamide vs AS, 2 years): −5.15 ± 3.17%
OR (95% CI), negative biopsy at 1 year ([1]; enzalutamide vs AS, exact logistic regression, 1 year): 3.5 (1.76, 6.92)
OR (95% CI), negative biopsy at 2 years ([1]; enzalutamide vs AS, exact logistic regression, 2 years): 1.6 (0.66, 4.00)
OR (95% CI), negative biopsy at 2 years ([1]; enzalutamide vs AS, exact logistic regression, 2 years, listed as Enzalutamide): 1.6 (0.66, 4.00)
likelihood of a negative biopsy at one year compared to the control population ([1]; one year): at least three times more likely
Median Progression Free Survival / median time to pathological or therapeutic prostate cancer progression ([2]; FAS, Kaplan-Meier, NR = not reached): not reached
No. Censored (progression free survival), % ([2]; FAS, N = 114): 71.9%
No. of Events (prostate cancer progression), % ([2]; FAS, N = 114, 160 mg/day): 28.1%
reduction in risk of prostate cancer progression ([2]; compared to patients on active surveillance): 46%
Hazard Ratio (95% CI), time to prostate cancer progression ([2]; FAS): 0.542 (0.330, 0.892)
Hazard Ratio (95% CI), time to prostate cancer progression ([2]; FAS, listed as Enzalutamide): 0.54 (0.33, 0.89)
AEs leading to death, % [3]: 1.8%
Incidence of a secondary rise in serum PSA at 1 year, PSA response, % ([4]; 1 year, n = 114): (24.6) %
Incidence of a secondary rise in serum PSA at 2 years, PSA response, % ([4]; 2 years, n = 100): (92.0) %
Median Time to PSA Progression (95% CI) ([4]; FAS, Kaplan-Meier): 14.82
No. Censored (time to PSA progression), % ([4]; FAS, N = 114): 15.8%
No. of Events (PSA progression), % ([4]; FAS, N = 114): 84.2%
OR (95% CI), secondary rise in serum PSA at 1 year ([4]; enzalutamide vs AS, 1 year): 0.1 (0.08, 0.26)
OR (95% CI), secondary rise in serum PSA at 2 years ([4]; enzalutamide vs AS, 2 years): 1.1 (0.37, 3.53)
Hazard Ratio (95% CI), time to PSA progression ([4]; enzalutamide vs AS, FAS): 0.714 (0.525, 0.972)
Hazard Ratio (95% CI), time to PSA progression ([4]; enzalutamide vs AS, FAS, listed as Enzalutamide): 0.71 (0.53, 0.97)
Time to PSA progression, Median (95% CI) ([4]; n = 114): 14.8 months
PSA rebound following cessation of treatment ([4]; observed at month 15 onwards): PSA rebound was demonstrated
delay of PSA progression ([4]; versus AS): 6 months
AEs leading to death, % ([5]; During 1-year treatment period, n = 112): 0.9%
most common Drug-Related AE: fatigue ([5]; human, in vivo): 52.7%
Drug-related AEs leading to discontinuation of study drug, % ([5]; human, in vivo, 1 year): 7.1%
Drug-related AEs ≥ grade 3, % ([5]; human, in vivo, 1 year): 5.4%
Drug-related AEs, % ([5]; human, in vivo, 1 year): 88.4%
Drug-related SAEs, % ([5]; human, in vivo, 1 year): 2.7%
TEAEs ≥ grade 3, % ([5]; human, in vivo, 1 year): 9.8%
Adverse Event: Alopecia, % ([5]; human, in vivo, 12 months): (9.8%)
Adverse Event: Hypertension, % ([5]; human, in vivo, 12 months): (7.1%)
Adverse Event: Libido Decreased, % ([5]; human, in vivo, 12 months): (8.0%)
tolerability of enzalutamide monotherapy ([5]; in vivo): well-tolerated

— patent US20240139154A1, “Methods of Reducing Risk of Prostate Cancer Progression” (Astellas Pharma Inc., priority 2021, published 2024)
